Publication PMC11294338 (Nature Communications, 2024)

Legend:
[1] = tested on: SARS-CoV-2 (USA-WA1/2020) replicon in HuH-7 cells; type: cell-based
SARS-CoV-2 [2] = details: in vivo; cited from earlier work
SARS-CoV-2 [3] = details: human, in vivo; cited from earlier work

SMILES	EC50 [1] [µM]	transmission to untreated contact animals (SARS-CoV-2 [2])	post-exposure prophylactic prevention of transmission versus placebo (SARS-CoV-2 [3])
CC(C)(C)[C@H](NC(=O)C(F)(F)F)C(=O)N1C[C@H]2[C@@H]([C@H]1C(=O)N[C@H](C#N)C[C@@H]1CCNC1=O)C2(C)C [Nirmatrelvir]	0.015	–	–
CC(C)C(=O)OC[C@H]1O[C@@H](n2ccc(NO)nc2=O)[C@H](O)[C@@H]1O [molnupiravir]	–	prevented such transmission	neither was able to reach statistical significance over placebo
